# Results: ChEMBL document CHEMBL4177569, “Design, synthesis and preliminary antiproliferative activity studies of new diheteroaryl thioether derivatives” (Bioorg Med Chem Lett, 2017)
# Tests used:
# Assay type in all cases: functional, cell-based
# ECa-109 cell line = assay: Antiproliferative activity against human EC109 cells after 48 hrs by MTT assay; conditions: ECa-109, 48 h
# NCI-H1650 = assay: Antiproliferative activity against human NCI-H1650 cells after 48 hrs by MTT assay; conditions: NCI-H1650, 48 h
# MGC-803 = assay: Antiproliferative activity against human MGC803 cells after 48 hrs by MTT assay; conditions: MGC-803, 48 h
# MKN-45 = assay: Antiproliferative activity against human MKN45 cells after 48 hrs by MTT assay; conditions: MKN-45, 48 h
smiles,measurement,setting,value
O=c1[nH]cc(F)c(=O)[nH]1 [FLUOROURACIL],IC50,ECa-109 cell line,6.21 µM
same,IC50,NCI-H1650,14.2 µM
same,IC50,MGC-803,7.52 µM
same,IC50,MKN-45,8.89 µM
